Measurements as given in PubChem BioAssay AID228 (DTP/NCI, 2004).
“And” between values parts separate entries of the source, which are not always exact repeats. Equal entries are not always repeated. Records with an inconclusive call do not appear.

Tested on: BDF1 mice, Friend leukemia sc, tumor weight T/C
Assay: NCI In Vivo Anticancer Drug Screen. Data for tumor model Friend Virus Leukemia (Solid) (subcutaneous) in B6D2F1 (BDF1) mice
Details: endpoint: mean tumor weight, higher = larger tumour
Experimental: The antitumor activity of compounds was measured in mice bearing transplantable tumors. Survival or tumor size were measured and the results are expressed as the measurement made in the treated group (T) divided by the measurement made in the vehicle treated control group (C). The tumor model used in this assay is Friend Virus Leukemia (Solid) (subcutaneous) in B6D2F1 (BDF1) mice

[1] = dose: 5.0 mg/kg/injection, schedule: Q01DX011 (ip), vehicle: saline
[2] = dose: 7.0 mg/kg/injection, schedule: Q01DX011 (ip), vehicle: carboxymethylcellulose (CMC)
[3] = dose: 0.5 mg/kg/injection, schedule: Q01DX011 (ip), vehicle: carboxymethylcellulose (CMC)
[4] = dose: 15.0 mg/kg/injection, schedule: Q01DX011 (ip), vehicle: carboxymethylcellulose (CMC)
[5] = dose: 19.0 mg/kg/injection, schedule: Q01DX011 (ip), vehicle: carboxymethylcellulose (CMC)
[6] = dose: 75.0 mg/kg/injection, schedule: Q01DX011 (ip), vehicle: carboxymethylcellulose (CMC)

For CN(N=O)C(N)=O, the T/C (dose: 4.0 mg/kg/injection, schedule: Q01DX011 (ip), vehicle: carboxymethylcellulose (CMC)) was 94 % of control and 95 % of control, the T/C [1] was 53 % of control and the T/C (dose: 8.0 mg/kg/injection, schedule: Q01DX011 (ip), vehicle: carboxymethylcellulose (CMC)) was 98 % of control and 117 % of control. The T/C (dose: 10.0 mg/kg/injection, schedule: Q01DX011 (ip), vehicle: saline) was 31 % of control, the T/C (dose: 15.0 mg/kg/injection, schedule: Q01DX011 (ip), vehicle: saline) was 20 % of control and the T/C (dose: 16.0 mg/kg/injection, schedule: Q01DX011 (ip), vehicle: carboxymethylcellulose (CMC)) was 46 % of control and 49 % of control. For the same molecule, the T/C (dose: 22.0 mg/kg/injection, schedule: Q01DX011 (ip), vehicle: saline) was 22 % of control and the T/C (dose: 30.0 mg/kg/injection, schedule: Q01DX011 (ip), vehicle: carboxymethylcellulose (CMC)) was 59 % of control.
In the case of CS(=O)(=O)OCCCCOS(C)(=O)=O, the T/C (dose: 6.62 mg/kg/injection, schedule: Q01DX011 (ip), vehicle: carboxymethylcellulose (CMC)) is reported as 107 % of control, the T/C [2] is reported as 65 % of control and the T/C (dose: 13.25 mg/kg/injection, schedule: Q01DX011 (ip), vehicle: carboxymethylcellulose (CMC)) is reported as 68 % of control. The T/C (dose: 14.0 mg/kg/injection, schedule: Q01DX011 (ip), vehicle: carboxymethylcellulose (CMC)) was 91 % of control, the T/C (dose: 26.5 mg/kg/injection, schedule: Q01DX011 (ip), vehicle: carboxymethylcellulose (CMC)) was 110 % of control and the T/C (dose: 27.0 mg/kg/injection, schedule: Q01DX011 (ip), vehicle: carboxymethylcellulose (CMC)) was 55 % of control. For the same molecule, the T/C (dose: 53.0 mg/kg/injection, schedule: Q01DX011 (ip), vehicle: carboxymethylcellulose (CMC)) was 66 % of control.
In the case of CCC(=O)NC1=C(N2CC2)C(=O)C(NC(=O)CC)=C(N2CC2)C1=O, the T/C (dose: 0.39 mg/kg/injection, schedule: Q01DX011 (ip), vehicle: carboxymethylcellulose (CMC)) is reported as 61 % of control, the T/C (dose: 0.78 mg/kg/injection, schedule: Q01DX011 (ip), vehicle: carboxymethylcellulose (CMC)) is reported as 48 % of control and the T/C (dose: 1.56 mg/kg/injection, schedule: Q01DX011 (ip), vehicle: carboxymethylcellulose (CMC)) is reported as 24 % of control. For the same molecule, the T/C (dose: 3.12 mg/kg/injection, schedule: Q01DX011 (ip), vehicle: carboxymethylcellulose (CMC)) was 7 % of control.
With C=CC(CN1CC1)OC(C)=O (stereo not given) the T/C (dose: 1.2 mg/kg/injection, schedule: Q01DX011 (ip), vehicle: carboxymethylcellulose (CMC)) was 70 % of control, the T/C (dose: 2.4 mg/kg/injection, schedule: Q01DX011 (ip), vehicle: carboxymethylcellulose (CMC)) was 89 % of control and the T/C (dose: 2.5 mg/kg/injection, schedule: Q01DX011 (ip), vehicle: saline) was 50 % of control. The T/C (dose: 4.8 mg/kg/injection, schedule: Q01DX011 (ip), vehicle: carboxymethylcellulose (CMC)) was 36 % of control, the T/C [1] was 31 % of control and the T/C (dose: 7.5 mg/kg/injection, schedule: Q01DX011 (ip), vehicle: saline) was 26 % of control. The T/C (dose: 9.9 mg/kg/injection, schedule: Q01DX011 (ip), vehicle: saline) was 3 % of control.
With CCCCn1cnc2c(=S)nc(N)[nH]c21 the T/C (dose: 0.25 mg/kg/injection, schedule: Q01DX011 (ip), vehicle: carboxymethylcellulose (CMC)) was 87 % of control, the T/C [3] was 53 % of control and the T/C (dose: 1.0 mg/kg/injection, schedule: Q01DX011 (ip), vehicle: carboxymethylcellulose (CMC)) was 32 % of control and 40 % of control. The T/C (dose: 3.0 mg/kg/injection, schedule: Q01DX011 (ip), vehicle: carboxymethylcellulose (CMC)) was 6 % of control and 7 % of control, the T/C [2] was 12 % of control and the T/C [4] was 9 % of control.
With O=C(Nc1ccc(C2=NCCN2)cc1)c1ccc(C(=O)Nc2ccc(C3=NCCN3)cc2)c(Cl)c1 the T/C (dose: 0.31 mg/kg/injection, schedule: Q01DX011 (ip), vehicle: carboxymethylcellulose (CMC)) was 66 % of control, the T/C [3] was 93 % of control and the T/C (dose: 0.63 mg/kg/injection, schedule: Q01DX011 (ip), vehicle: carboxymethylcellulose (CMC)) was 50 % of control. The T/C (dose: 1.25 mg/kg/injection, schedule: Q01DX011 (ip), vehicle: carboxymethylcellulose (CMC)) was 40 % of control and 46 % of control, the T/C (dose: 2.5 mg/kg/injection, schedule: Q01DX011 (ip), vehicle: carboxymethylcellulose (CMC)) was 39 % of control and the T/C (dose: 10.0 mg/kg/injection, schedule: Q01DX011 (ip), vehicle: carboxymethylcellulose (CMC)) was 93 % of control. For the same molecule, the T/C [4] was 21 % of control [middle of 4 runs] and the T/C (dose: 20.0 mg/kg/injection, schedule: Q01DX011 (ip), vehicle: carboxymethylcellulose (CMC)) was 6 % of control.
With O=CN(O)CC(=O)O the T/C (dose: 125.0 mg/kg/injection, schedule: Q01DX011 (ip), vehicle: saline) was 154 % of control, the T/C (dose: 250.0 mg/kg/injection, schedule: Q01DX011 (ip), vehicle: saline) was 196 % of control and the T/C (dose: 375.0 mg/kg/injection, schedule: Q01DX011 (ip), vehicle: saline) was 193 % of control.
With Nc1ccc(OC(=O)Oc2ccc(N)cc2)cc1 the T/C (dose: 31.0 mg/kg/injection, schedule: Q01DX011 (ip), vehicle: carboxymethylcellulose (CMC)) was 105 % of control, the T/C (dose: 62.0 mg/kg/injection, schedule: Q01DX011 (ip), vehicle: carboxymethylcellulose (CMC)) was 68 % of control and the T/C (dose: 125.0 mg/kg/injection, schedule: Q01DX011 (ip), vehicle: carboxymethylcellulose (CMC)) was 28 % of control.
With CO[C@H]1CC[C@@]2(C)[C@@H](CC[C@H]3[C@@H]4C[C@H](O)C[C@@]4(C)CC[C@@H]32)C1 the T/C (dose: 10.0 mg/kg/injection, schedule: Q01DX011 (sc), vehicle: steriod suspending solution) was 108 % of control and the T/C (dose: 15.0 mg/kg/injection, schedule: Q01DX011 (sc), vehicle: steriod suspending solution) was 104 % of control.
CNC(C)=O was tested, and the T/C (dose: 250.0 mg/kg/injection, schedule: Q01DX011 (ip), vehicle: carboxymethylcellulose (CMC)) was 104 % of control, the T/C (dose: 500.0 mg/kg/injection, schedule: Q01DX011 (ip), vehicle: carboxymethylcellulose (CMC)) was 99 % of control and 107 % of control and the T/C (dose: 1000.0 mg/kg/injection, schedule: Q01DX011 (ip), vehicle: carboxymethylcellulose (CMC)) was 75 % of control and 76 % of control.
For CC(C)CCSc1nc(N)nc2nc[nH]c12, the T/C (dose: 11.0 mg/kg/injection, schedule: Q01DX011 (ip), vehicle: carboxymethylcellulose (CMC)) was 59 % of control, the T/C (dose: 22.0 mg/kg/injection, schedule: Q01DX011 (ip), vehicle: carboxymethylcellulose (CMC)) was 38 % of control and the T/C (dose: 45.0 mg/kg/injection, schedule: Q01DX011 (ip), vehicle: carboxymethylcellulose (CMC)) was 18 % of control and 21 % of control. For the same molecule, the T/C (dose: 90.0 mg/kg/injection, schedule: Q01DX011 (ip), vehicle: carboxymethylcellulose (CMC)) was 7 % of control and 21 % of control and the T/C (dose: 180.0 mg/kg/injection, schedule: Q01DX011 (ip), vehicle: carboxymethylcellulose (CMC)) was 5 % of control.
With Cn1c(=O)c2[nH]cnc2n(C)c1=O the T/C (dose: 14.5 mg/kg/injection, schedule: Q01DX011 (ip), vehicle: carboxymethylcellulose (CMC)) was 97 % of control, the T/C (dose: 29.0 mg/kg/injection, schedule: Q01DX011 (ip), vehicle: carboxymethylcellulose (CMC)) was 93 % of control and the T/C (dose: 58.0 mg/kg/injection, schedule: Q01DX011 (ip), vehicle: carboxymethylcellulose (CMC)) was 82 % of control. For the same molecule, the T/C (dose: 116.0 mg/kg/injection, schedule: Q01DX011 (ip), vehicle: carboxymethylcellulose (CMC)) was 66 % of control.
For CCCCCCCCCCCCCCCCC(C(=O)O)C(O)(CC(=O)O)C(=O)O (stereo not given), the T/C [5] was 107 % of control, the T/C (dose: 37.5 mg/kg/injection, schedule: Q01DX011 (ip), vehicle: carboxymethylcellulose (CMC)) was 100 % of control and the T/C [6] was 35 % of control.
In the case of [N-]=[N+]=[N-], the T/C (dose: 1.06 mg/kg/injection, schedule: Q01DX011 (ip), vehicle: carboxymethylcellulose (CMC)) is reported as 89 % of control, the T/C (dose: 2.12 mg/kg/injection, schedule: Q01DX011 (ip), vehicle: carboxymethylcellulose (CMC)) is reported as 108 % of control and the T/C (dose: 4.25 mg/kg/injection, schedule: Q01DX011 (ip), vehicle: carboxymethylcellulose (CMC)) is reported as 114 % of control. The T/C (dose: 8.5 mg/kg/injection, schedule: Q01DX011 (ip), vehicle: carboxymethylcellulose (CMC)) was 117 % of control.
CCOC(=O)NP(=O)(N1CC1)N1CC1 was tested, and the T/C (dose: 2.87 mg/kg/injection, schedule: Q01DX011 (ip), vehicle: carboxymethylcellulose (CMC)) was 78 % of control, the T/C (dose: 4.75 mg/kg/injection, schedule: Q01DX011 (ip), vehicle: carboxymethylcellulose (CMC)) was 77 % of control and the T/C (dose: 9.5 mg/kg/injection, schedule: Q01DX011 (ip), vehicle: carboxymethylcellulose (CMC)) was 36 % of control. The T/C [5] was 5 % of control.
In the case of Brc1ncnc2nc[nH]c12, the T/C [6] is reported as 51 % of control, the T/C (dose: 113.0 mg/kg/injection, schedule: Q01DX011 (ip), vehicle: carboxymethylcellulose (CMC)) is reported as 82 % of control and the T/C (dose: 171.0 mg/kg/injection, schedule: Q01DX011 (ip), vehicle: carboxymethylcellulose (CMC)) is reported as 43 % of control. For the same molecule, the T/C (dose: 256.0 mg/kg/injection, schedule: Q01DX011 (ip), vehicle: carboxymethylcellulose (CMC)) was 34 % of control.
